Experimental data from paper PMC6270759, “Constituents of the Roots and Leaves of Ekebergia capensis and Their Potential Antiplasmodial and Cytotoxic Activities” (Molecules, 2014).
Where two headings read alike, the source gives them in different places. Marks after values point to notes of the source that are not given here.

Experiments:
[1] = tested on: MDA-MB-231 human breast cancer cells; test: Alamar Blue cytotoxicity assay, MDA-MB-231 cells; assay type: cell-based; conditions: pure compounds, 72 h
Description: Cytotoxicity tests on MDA-MB-231 cells were carried out following a previously described procedure. MDA-MB-231 human breast cancer cells were cultured in Dulbecco’s modified eagle medium (DMEM) supplemented with 10% (v/v) fetal bovine serum, 2 mM L-glutamine, 100 units/mL penicillin and 100 μg/mL streptomycin at 37 °C in humidified 5% CO2. For cytotoxicity assays, cells were seeded in 96-well plates at optimal cell density (10,000 cells per well) to ensure exponential growth for the duration of the assay. After a 24 h preincubation growth, the medium was replaced with experimental medium containing the appropriate drug concentrations or vehicle controls (0.1% or 1.0% v/v DMSO). After 72 h of incubation, cell viability was measured using Alamar Blue reagent (Invitrogen Ab, Lidingö, Sweden) according to the manufacturer’s instructions. Absorbance was measured at 570 nm with 600 nm as a reference wavelength. Results were expressed as the mean ± standard error for six replicates as a percentage of vehicle control (taken as 100%). Experiments were performed independently at least six times. Statistical analyses were performed using a two-tailed Student’s t-test. p < 0.05 was considered to be statistically significant.

vero cells = test: Interaction of oleanonic acid (2) with other triterpenoids, fixed ratios, vero cell cytotoxicity; assay type: cell-based, African monkey; conditions: for IC50: Primates, ratio 0:1, in the absence of 2 (for 2: alone), read-out: IC50 (μg/mL), substance alone; for ∑FIC 1:1: ratio of oleanonic acid (2) versus constituent 1:1; for ∑FIC 1:3: ratio of oleanonic acid (2) versus constituent 1:3; for ∑FIC 3:1: ratio of oleanonic acid (2) versus constituent 3:1
Description: This assay is based on the ability of a mitochondrial dehydrogenase enzyme from viable cells to cleave the tetrazolium rings of the pale yellow MTT and thereby form dark blue formazan crystals, which are largely impermeable to cell membranes, resulting in their accumulation within healthy cells. The amount of generated formazan is directly proportional to the number of cells. […] Cells were maintained in Eagle’s Minimum Essential Medium (MEM) containing 10% fetal bovine serum (FBS). A cell density of 20.000 cells per well in 100 μL were seeded on 96-well plates and incubated for 12 h at 37 °C and 5% CO2 to attach to the surface. […] The plates were incubated for 48 h at 37 °C and 5% CO2, followed by an addition of 10 µL MTT viability indicator reagent. The plates were incubated for additional 4 h at the same conditions. Next, all media was removed from the plates and 100 µL DMSO was added to dissolve the formazan crystals. The plates were read on a Multiskan EX Labsystems scanning multi-well spectrophotometer at 562 nm, and 620 nm as reference. The results were recorded as optical density (OD) per well at each drug concentration. The data was transferred into the software Microsoft Excel and expressed as percentage of the untreated controls. Percentage cytotoxicity (PC) as compared to the untreated controls was calculated as PC = [A − B/A] × 100, where A is the mean OD of the untreated cells and B is the mean OD at each drug concentration. The drug concentration required for 50% inhibition of cell growth was estimated using nonlinear regression analysis of the dose- response curve. The interaction of oleanonic acid (2) with other triterpenoids was studied using the fixed concentration ratios oleanonic acid: ‘other triterpenoid’ 0:1, 1:3, 1:1, 3:1, 1:0. The vero cell cytotoxicity assay was used, as described above, to evaluate the toxicity of the mixtures. To determine whether there was synergy, additive effect or antagonism, the sum of fractional inhibition concentration (∑FIC) was calculated using the formula Ax/Ay + Bx/By = K, where Ax and Bx are the IC50s when the substances are used in combination, and Ay and By are the IC50s, when the substances are used alone. The data was scored with the scale ∑FIC < 1: synergism, 2 > ∑FIC ≥ 1: additive, 4 > ∑FIC ≥ 2: slight antagonism, ∑FIC ≥ 4: marked antagonism.

[2] = tested on: mouse breast cancer (4T1) cells; test: MTT cytotoxicity assay, 4T1 cells; assay type: cell-based; conditions: 4T1, 48 h, pure compounds
Description: (§1) This assay is based on the ability of a mitochondrial dehydrogenase enzyme from viable cells to cleave the tetrazolium rings of the pale yellow MTT and thereby form dark blue formazan crystals, which are largely impermeable to cell membranes, resulting in their accumulation within healthy cells. The amount of generated formazan is directly proportional to the number of cells. […] Cells were maintained in Eagle’s Minimum Essential Medium (MEM) containing 10% fetal bovine serum (FBS). A cell density of 20.000 cells per well in 100 μL were seeded on 96-well plates and incubated for 12 h at 37 °C and 5% CO2 to attach to the surface. […] The plates were incubated for 48 h at 37 °C and 5% CO2, followed by an addition of 10 µL MTT viability indicator reagent. The plates were incubated for additional 4 h at the same conditions. Next, all media was removed from the plates and 100 µL DMSO was added to dissolve the formazan crystals. The plates were read on a Multiskan EX Labsystems scanning multi-well spectrophotometer at 562 nm, and 620 nm as reference. The results were recorded as optical density (OD) per well at each drug concentration. The data was transferred into the software Microsoft Excel and expressed as percentage of the untreated controls.

[3] = tested on: human larynx carcinoma (HEp2) cells; test: MTT cytotoxicity assay, HEp2 cells; assay type: cell-based; conditions: HEp-2, pure compounds, 48 h
Description: A rapid colorimetric assay was carried out using 3-(4,5-dimethylthiazol-2-yl)-2,5-diphenyltetrazolium bromide (MTT). This assay is based on the ability of a mitochondrial dehydrogenase enzyme from viable cells to cleave the tetrazolium rings of the pale yellow MTT and thereby form dark blue formazan crystals, which are largely impermeable to cell membranes, resulting in their accumulation within healthy cells. The amount of generated formazan is directly proportional to the number of cells. In this assay, the mammalian cell lines African monkey kidney (vero), mouse breast cancer (4T1) and human larynx carcinoma (HEp2) were used. Cells were maintained in Eagle’s Minimum Essential Medium (MEM) containing 10% fetal bovine serum (FBS). A cell density of 20.000 cells per well in 100 μL were seeded on 96-well plates and incubated for 12 h at 37 °C and 5% CO2 to attach to the surface. Samples of the tested extracts and isolated compounds were added to the cultured cells in rows H-B over a concentration range of 0.14 to 100 μg/mL, whereas wells 1–8 of row A served as untreated controls and wells 9–12 as blank (1% DMSO, v/v). The plates were incubated for 48 h at 37 °C and 5% CO2, followed by an addition of 10 µL MTT viability indicator reagent. The plates were incubated for additional 4 h at the same conditions. Next, all media was removed from the plates and 100 µL DMSO was added to dissolve the formazan crystals. The plates were read on a Multiskan EX Labsystems scanning multi-well spectrophotometer at 562 nm, and 620 nm as reference. The results were recorded as optical density (OD) per well at each drug concentration. The data was transferred into the software Microsoft Excel and expressed as percentage of the untreated controls. Percentage cytotoxicity (PC) as compared to the untreated controls was calculated as PC = [A − B/A] × 100, where A is the mean OD of the untreated cells and B is the mean OD at each drug concentration. The drug concentration required for 50% inhibition of cell growth was estimated using nonlinear regression analysis of the dose- response curve.

[4] = tested on: chloroquine-sensitive D6 strain of P. falciparum; test: In vitro antiplasmodial assay, (G-3H) hypoxanthine incorporation, D6 strain; assay type: cell-based; conditions: Plasmodium falciparum
Description: (§2) Continuous in vitro cultures of asexual erythrocytic stages of Indochinese chloroquine-resistant W2 and Sierra Leonean chloroquine-sensitive D6 strains of P. falciparum were maintained following the modified procedure described by Trager and Jensen. Drug assay was carried out following a modification of the semiautomated microdilution technique, which measures the ability of the extracts to inhibit the incorporation of (G-^3H) hypoxanthine into the malaria parasite. […] Data was transferred into the software Microsoft Excel and was expressed as the percentage of the untreated controls. The drug concentration required for 50% inhibition of (G-^3H) hypoxanthine incorporation into parasite nucleic acid was calculated with nonlinear regression analysis of the dose-response curve.

[5] = tested on: chloroquine-resistant W2 strain of P. falciparum; test: In vitro antiplasmodial assay, (G-3H) hypoxanthine incorporation, W2 strain; assay type: cell-based; conditions: Plasmodium falciparum, pure compounds
Description: as §2

[6] = tested on: African monkey kidney (vero) cells; test: MTT cytotoxicity assay, vero cells; assay type: cell-based; conditions: Primates, 48 h, read-out: IC50 Vero
Description: as §1

[7] = tested on: 3D7 strain of P. falciparum; set-up: method as in PMID 14598212; conditions: cited from earlier work
[8] = pure compounds, P. falciparum D6, mean of at least three independent experiments, read-out: IC50 D6

SMILES | IC50 [1] [µM] | Interaction with the cytotoxic effect of oleanonic acid (2), in words (vero cells) | IC50 (vero cells) [µg/mL] | ∑FIC 1:1 (vero cells) | ∑FIC 1:3 (vero cells) | ∑FIC 3:1 (vero cells) | IC50 [2] [µM] | IC50 [3] [µM] | IC50 [4, 8] [µM] | IC50 [5] [µM] | IC50 ([6]; vero cells, MTT) [µM] | IC50 ([4]; D6, read-out: IC50(D6)) [µM] | IC50 ([6]; Vero) [µM] | in vitro antiplasmodial activity against 3D7, in words [7]
CC1(C)CC[C@]2(C(=O)O)CC[C@]3(C)C(=CC[C@@H]4[C@@]5(C)CC[C@@H](O)C(C)(C)[C@@H]5CC[C@]43C)C2C1 (stereo partly drawn) [Compound 3, 3-epi-oleanolic acid] | 36.54 ± 0.02 | markedly antagonized | 22.5 | 5.2 ^c | 9.8 ^c | 5.8 ^c | 30.3 ± 2.6 | 29.8 ± 0.3 | 205 ± 3 | 179 ± 6 | 58 ± 5.2 | – | – | –
O=c1c(O[C@@H]2O[C@H](CO)[C@@H](O)[C@H](O)[C@H]2O)c(-c2ccc(O)cc2)oc2cc(O)cc(O)c12 [Compound 9, kaempferol-3-O-β-D-glucopyranoside] | > 223 | – | – | – | – | – | > 223 | > 223 | 97.1 ± 1 | 105.8 ± 0.5 | > 223 | – | – | –
CCN(CC)CCCC(C)Nc1ccnc2cc(Cl)ccc12 (centres unmarked) [Chloroquine, reference compound] | – | – | – | – | – | – | – | – | – | – | – | 0.0077 | 43.9 | –
CC(=CCCC=C(C)CCC=C(C)CCC(O)C(C)(O)CO)CCC=C(C)CCC(O)C(C)(C)O (centres unmarked) [Compound 6, 2-hydroxymethyl-2,3,22,23-tetrahydroxy-6,10,15,19,23-pentamethyl-6,10,14,18-tetracosatetraene] | 36.69 ± 0.04 | weak antagonistic effects | 13.6 | 2.2 ^c | 2.2 ^c | 2.3 ^c | 30.2 ± 1.3 | 38.4 ± 0.8 | 27.1 ± 0.4 | 66.9 ± 0.6 | 35.7 ± 2.1 | – | – | –
CC(C)C12CCC3(CCC4(C)C(CCC5C6(C)CCC(=O)C(C)(C)C6CCC54C)C3O1)CO2 (centres unmarked) [Compound 5, ekeberin A] | – | antagonized by high concentrations of ekeberin A (5), but at lower relative concentrations 5 enhanced the toxicity of 2 | > 100 | <1.4 ^c | <4 ^c | <1.3 ^c | 163 ± 4.3 | > 219 | 182 ± 6 | > 219 | > 219 | – | – | –
COC(=O)C[C@H]1C(C)(C)[C@H](O)[C@@H]2CC3=C4CC(=O)O[C@@H](c5ccoc5)[C@]4(C)CC[C@@H]3[C@@]1(C)C2=O [Compound 8, proceranolide] | – | – | – | – | – | – | > 213 | > 213 | 84.7 ± 0.8 | 150 ± 3 | > 213 | – | – | –
CC1(C)CC[C@]2(C(=O)O)CC[C@]3(C)C(=CC[C@@H]4[C@@]5(C)CCC(=O)C(C)(C)[C@@H]5CC[C@]43C)[C@@H]2C1 [Compound 2, oleanonic acid] | > 212 | – | 14.8 | – | – | – | – | 1.4 ± 0.1 | 38.8 ± 0.5 | 76.7 ± 4 | 35.8 ± 1.3 | – | – | –
CC1(C)CC[C@]2(C(=O)O)CC[C@]3(C)C(=CC[C@@H]4[C@@]5(C)CC[C@H](O)C(C)(C)[C@@H]5CC[C@]43C)[C@@H]2C1 [Compound 4, oleanolic acid] | 39.82 ± 0.03 | slight antagonistic effect | 40.3 | 4.7 ^c | 3.3 ^c | 3.6 ^c | 118 ± 2.6 | 134.9 ± 0.7 | 49.6 ± 2.3 | 82.7 ± 2 | 112 ± 5.1 | – | – | moderate
CC(=CCCC=C(C)CCC=C(C)CCC(O)C(C)(C)O)CCC=C(C)CCC(O)C(C)(C)O (centres unmarked) [Compound 7, 2,3,22,23-tetrahydroxy-2,6,10,15,19,23-hexamethyl-6,10,14,18-tetracosatetraene] | > 209 | weak antagonistic effects | 11 | 1.9 ^c | 2 ^c | 2.2 ^c | 22.5 ± 3.2 | 35.5 ± 3.1 | 56.1 ± 0.4 | 64.3 ± 1 | 24.7 ± 1.8 | – | – | –
O=c1c(O[C@@H]2O[C@H](CO)[C@@H](O)[C@H](O)[C@H]2O)c(-c2ccc(O)c(O)c2)oc2cc(O)cc(O)c12 [Compound 10, quercetin-3-O-β-D-glucopyranoside] | > 216 | – | – | – | – | – | > 216 | > 216 | 42.9 ± 0.3 | 105.8 ± 1 | > 216 | – | – | –
